Experimental data as given in PubChem BioAssay (NCI).
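A five-concentration, 48-hour dose response in 96-well plates underlies each endpoint, interpolated linearly between surrounding concentrations. TGI: total growth inhibition.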

Assays:
Assay in all cases: NCI-60 cell line screen, 48 h
SR leukemia = test system: SR leukemia
U251 CNS = test system: U251 CNS
HOP-62 NSCLC = test system: HOP-62 NSCLC
SK-OV-3 ovarian = test system: SK-OV-3 ovarian
MDA-N = test system: MDA-N
NCI-H23 lung = test system: NCI-H23 lung
HCC-2998 colon = test system: HCC-2998 colon
SW-620 colon = test system: SW-620 colon
HCT-15 colon = test system: HCT-15 colon
SN12C renal = test system: SN12C renal
SNB-75 CNS = test system: SNB-75 CNS
SF-539 CNS = test system: SF-539 CNS
HL-60(TB) leukemia = test system: HL-60(TB) leukemia
MOLT-4 leukemia = test system: MOLT-4 leukemia
HS 578T breast = test system: HS 578T breast
COLO 205 colon = test system: COLO 205 colon
SK-MEL-5 melanoma = test system: SK-MEL-5 melanoma
786-0 renal = test system: 786-0 renal
UACC-62 melanoma = test system: UACC-62 melanoma

| Compound | TGI (SR leukemia) [µM] | TGI (U251 CNS) [µM] | TGI (HOP-62 NSCLC) [µM] | TGI (SK-OV-3 ovarian) [µM] | TGI (MDA-N) [µM] | TGI (NCI-H23 lung) [µM] | TGI (HCC-2998 colon) [µM] | TGI (SW-620 colon) [µM] | TGI (HCT-15 colon) [µM] | TGI (SN12C renal) [µM] | TGI (SNB-75 CNS) [µM] | TGI (SF-539 CNS) [µM] | TGI (HL-60(TB) leukemia) [µM] | TGI (MOLT-4 leukemia) [µM] | TGI (HS 578T breast) [µM] | TGI (COLO 205 colon) [µM] | TGI (SK-MEL-5 melanoma) [µM] | TGI (786-0 renal) [µM] | TGI (UACC-62 melanoma) [µM] |
| --- | --- | --- | --- | --- | --- | --- | --- | --- | --- | --- | --- | --- | --- | --- | --- | --- | --- | --- | --- |
| C#CCOCn1ccc(=O)[nH]c1=O | > 100 | > 100 | > 100 | > 100 | > 100 | > 100 | > 100 | > 100 | > 100 | > 100 | > 100 | > 100 | > 100 | > 100 | > 100 | > 100 | > 100 | > 100 | > 100 |
| O=C(O)CCC(NC(=O)c1ccc(Nc2cnc3ccc(C(F)(F)F)cc3n2)cc1)C(=O)O (centres undefined) | > 100 | > 100 | > 100 | > 100 | > 100 | > 100 | > 100 | > 100 | > 100 | > 100 | > 100 | > 100 | > 100 | > 100 | > 100 | > 100 | > 100 | > 100 | > 100 |
| CCOC(=O)NC(C(=O)OCC)C(F)(F)F (centres undefined) | > 100 | > 100 | > 100 | > 100 | > 100 | > 100 | > 100 | > 100 | > 100 | > 100 | > 100 | > 100 | 69.9 | > 100 | > 100 | > 100 | > 100 | > 100 | – |
| CN=CN(C)c1c2ccccc2nc2ccccc12 | > 100 | > 100 | > 100 | > 100 | > 100 | > 100 | > 100 | > 100 | > 100 | > 100 | > 100 | > 100 | > 100 | > 100 | > 100 | > 100 | > 100 | > 100 | > 100 |
| C=CCOc1ccc(/C(N=Nc2ccccc2)=N/NC(=O)c2ccccc2)cc1OC | > 100 | > 100 | > 100 | – | > 100 | > 100 | > 100 | > 100 | > 100 | > 100 | > 100 | > 100 | > 100 | > 100 | > 100 | > 100 | > 100 | > 100 | > 100 |
| OCC1OC(NCCNCCNC2OC(CO)C(O)C(O)C2O)C(O)C(O)C1O (centres undefined) | > 100 | > 100 | > 100 | > 100 | > 100 | > 100 | > 100 | > 100 | > 100 | > 100 | > 100 | > 100 | > 100 | > 100 | > 100 | > 100 | > 100 | > 100 | > 100 |
| COc1cc(Cn2c(=S)ss/c2=N\C(=S)N(C)C)cc(OC)c1OC | > 61.2 | > 82 | > 84.1 | > 63.1 | 3.01 | 50.6 | > 95.4 | > 100 | > 70.5 | > 100 | 53.9 | > 57.7 | > 61.5 | > 100 | > 100 | > 86.9 | 56.4 | > 91.3 | 58.6 |
| C(=Nc1ccc(-c2cc(-c3ccccc3)nc3ccc4ccccc4c23)cc1)c1ccccc1 | > 100 | > 100 | 56.1 | > 100 | > 100 | > 100 | 26.6 | > 100 | > 100 | > 100 | > 100 | 66.3 | > 100 | > 100 | 68.6 | 42.6 | 42.3 | > 100 | 62.1 |
| CCCc1c(O)c(=O)c2c(OC)cc(OC)c3c4c(OC)cc(OC)c5c(=O)c(O)c(CCC)c(c1c23)c54 | 0.463 | 11.3 | 8.11 | 2.96 | 12.2 | 3.16 | 17.1 | 12.2 | 11.6 | 22.3 | 3.53 | 11.3 | 4.64 | 1.23 | 72.2 | 8.94 | 1.91 | 9.59 | 1.88 |
| CCCCCCCCCCCCCCCCCCNc1ccn(C2OC(CO)C(O)C2O)c(=O)n1 (centres undefined) | > 100 | > 100 | > 100 | > 100 | > 100 | > 100 | > 100 | > 100 | > 100 | > 100 | > 100 | > 100 | 13.6 | > 49.7 | > 100 | > 100 | > 100 | > 100 | > 100 |
| O=C(Cn1cc(F)c(=O)[nH]c1=O)C12CC3CC(CC(C3)C1)C2 | > 100 | > 100 | > 100 | > 100 | > 100 | > 100 | > 100 | > 100 | > 100 | > 100 | > 100 | > 100 | > 100 | > 100 | > 100 | > 100 | > 100 | > 100 | > 100 |
| CC(=O)CCC(=O)C(=[N+]=[N-])S(=O)(=O)c1ccccc1 | > 100 | > 100 | > 100 | – | > 100 | > 100 | > 100 | > 100 | > 100 | > 100 | > 100 | > 100 | > 100 | > 100 | > 100 | > 100 | > 100 | > 100 | > 100 |
| CCOP1(=O)C=C(Sc2ccc([N+](=O)[O-])cc2[N+](=O)[O-])C(C)(C)O1 (centres undefined) | 7.17 | 30.3 | 56.2 | 66.2 | 17.6 | 46.3 | 39.7 | > 52.2 | 36.7 | 41 | 50.3 | 27.5 | 77.3 | > 100 | > 78.8 | 23.9 | 23 | 23.6 | 26.4 |
